Measured values published in patent US20030129180A1, “Products and methods for treating microbial infections” (The Proctor & Gamble Company, priority 2001, published 2003).

What was measured:
[1] = tested on: T. rubrum; assay: Relative growth of pre-germinated arthrospores in ESD broth tubes; type: cell-based; parameters: key: −: - (no growth); relative scale from - (no growth) to +++ (maximal growth); relative scale from - (no growth) to +++ (maximal growth); +++ (maximal growth); details: clotrimazole control, 20 μ/ml per tube, 30° C.
Protocol: (§1) Purified arthrospore suspensions of T. mentagrophytes or T. rubrum (prepared as per L. R. Wright et al., 1983, J. Antimicrob. Chemotherapy 12:317-327), diluted to a concentration of 1×10^6 cfu/ml in Emmon's modification of Sabouraud Dextrose Broth (ESD—R. Atlas, 1997, Handbook of microbiological media, CRC Press Inc., Boca Raton, Fla.), are incubated for 6 hours at 26° C. or 30° C., respectively, to pre-germinate spores. Enzyme preparations of chitinase (Sigma Cat. No. C-1525) and β1-1,3-glucanase (Sigma Cat. No. L-2524) are diluted into 3 ml volumes of ESD in capped glass tubes, to final concentrations of each enzyme ranging from 0 to 100 ppm. Clotrimazole controls are also prepared, to a final concentration of 20 μ/ml per tube.
(§2) Each tube is then inoculated with 10 μl (1×10^4 cfu) of either the T. mentagrophytes or T. rubrum pre-germinated arthrospore suspension, followed by incubation on a shaker at 200 rpm, at 26° C. or 30° C., respectively, for a total of 41 hours.

[2] = tested on: T. mentagrophytes; assay: as above; type: cell-based; parameters: key: −: - (no growth); relative scale from - (no growth) to +++ (maximal growth); relative scale from - (no growth) to +++ (maximal growth); +++ (maximal growth); details: clotrimazole control, 20 μ/ml per tube, 26° C.
Protocol: as §1, §2

Clc1ccccc1C(c1ccccc1)(c1ccccc1)n1ccnc1 [clotrimazole]
−: Growth, T. rubrum, 18 hours ([1]; 18 hours) | Growth, T. rubrum, 41 hours ([1]; 41 hours) | Growth, T. mentagrophytes, 18 hours ([2]; 18 hours) | Growth, T. mentagrophytes, 41 hours ([2]; 41 hours)
